Patent publication US4254115A, “Phospholipid derivative with an antilipemic and antiarteriosclerotic effect” (A. Nattermann & Cie. GmbH, priority 1979, dated 1981)
Like-named read-outs stand apart in the source and are kept apart here.

Columns and labels:
serum lipids = test: Biochemical screening (unstressed rat); type: in vivo; settings: oral, serum after 4 h
Experimental: (c) Biochemical screening
In accordance with the procedures set forth in Fletcher, M. J., Clin. Chim. […] Four hours later serum was analyzed for lipids and evaluated against a control group.

Acute toxicity, rat = type: in vivo; settings: in vivo
rat = test: Acute toxicity, rat; type: in vivo
[1] = system: triton-WR 1339 hyperlipemia (serum lipids); test: Acute triton test (1 × therapeutic application) on rats; type: in vivo; settings: for minimal effective dose: Rattus norvegicus, po, 48 h
Experimental: (b) Therapeutic application
One hour later the n-oleyl cephalin was orally administered. Forty-eight hours after the triton is administered, serum is analyzed for lipids and evaluated against a control group.

[2] = system: triton-WR 1339 hyperlipemia (serum lipids); test: Acute triton test (1 × prophylactic application) on rats; type: in vivo
Experimental: (a) Prophylactic application
The n-oleyl derivative (i.e., n-oleyl cephalin) was orally administered to the test animals. […] Forty-eight hours after the triton application, serum was analyzed for lipids and compared with a control group.

Acute toxicity, mouse = type: in vivo; settings: in vivo
mouse = test: Acute toxicity, mouse; type: in vivo
[3] = background knowledge; cited from earlier work
[4] = clofibrate, prophylactic, whole test, no single lipid named
[5] = lowest dose with drop, therapeutic
[6] = oral, 1 h after triton, serum 48 h after triton
[7] = lowest effective dose, oral, prophylactic
[8] = oral, 24 h before triton, serum 48 h after triton

Compound: CCOC(=O)C(C)(C)Oc1ccc(Cl)cc1 [Clofibrate, reference compound]
- minimal effective dose (serum lipids; read-out: Total cholesterol Drop from): 50 mg/kg
- minimal effective dose (serum lipids; read-out: Total lipids Drop from): 100 mg/kg
- minimal effective dose (serum lipids; read-out: Triglycerides Drop from): 50 mg/kg
- LD50 (Acute toxicity, rat): 1100 mg/kg
- LD0 rat (rat): ~ 681 mg/kg BW
- minimal effective dose ([1]; lowest dose with drop, therapeutic, read-out: Phospholipids Drop from): 500 mg/kg
- minimal effective dose ([1]; lowest dose with drop, therapeutic, read-out: Total lipids Drop from): 250 mg/kg
- minimal effective dose ([1]; lowest dose with drop, therapeutic, read-out: Triglycerides Drop from): 250 mg/kg
- Free cholesterol No effect up to ([1]; therapeutic): ≤ 500 mg/kg BW
- Total cholesterol No effect up to ([1]; therapeutic): ≤ 500 mg/kg BW
- Dosing ... very effective [2, 4]: 500 mg/kg BW
- Dosings up to ... ineffective [2, 4]: up to 250 mg/kg BW
- LD50 (Acute toxicity, mouse): 2960 mg/kg
- LD0 mouse (mouse): ~ 1470 mg/kg BW

Compound: CCCCC/C=C\C/C=C\CCCCCCCC(=O)NC1CCCCC1 [cyclohexyllinolamide]
- antiarteriosclerotic, antilipemic, metabolic or lipid-reducing effect in words [3]: lipid-reducing effect

Compound: n-oleylphosphatidylethanolamine [N-oleylcephalin]
- Free cholesterol Drop from (serum lipids): 50 mg/kg BW
- Phospholipids Drop from (serum lipids): 50 mg/kg BW
- Total cholesterol Drop from (serum lipids): 50 mg/kg BW
- Total lipids Drop from (serum lipids): 50 mg/kg BW
- Triglycerides Drop from (serum lipids): 50 mg/kg BW
- LD0 rat (rat): > 5000 mg/kg BW
- LD50 rat (rat): > 5000 mg/kg BW
- Free cholesterol Drop from [1, 5]: 0.10 mg/kg BW
- Phospholipids Drop from [1, 5]: 0.10 mg/kg BW
- Total cholesterol E.D.50 [1, 6]: 278.86 mg/kg BW
- Total lipids E.D.50 [1, 6]: 8.49 mg/kg BW
- Free cholesterol Effect from [2, 7]: 0.10 mg/kg BW
- Total cholesterol Effect from [2, 7]: 0.01 mg/kg BW
- Phospholipids E.D.50 [2, 8]: 0.62 mg/kg BW
- Total lipids E.D.50 [2, 8]: 0.29 mg/kg BW
- Triglycerides E.D.50 [2, 8]: 0.18 mg/kg BW
- LD0 mouse (mouse): > 4640 mg/kg BW
- LD50 mouse (mouse): > 4640 mg/kg BW
